Assay results from ChEMBL document CHEMBL1143921, “Structure-based design and synthesis of benzimidazole derivatives as dipeptidyl peptidase IV inhibitors” (Bioorg Med Chem Lett, 2008).

Tests used:
in vitro [1] = settings: human, liver microsomes
in vitro [2] = settings: rat, liver microsomes
[3] = Bioavailability in rat at 8 mg/kg, po; assay type: ADME, organism-based; settings: in vivo
[4] = Volume of distribution at steady state in rat at 0.8 mg/kg, iv or 8 mg/kg, po; assay type: ADME, organism-based; settings: in vivo, read-out: Vdss
[5] = Half life in rat at 0.8 mg/kg, iv; assay type: ADME, organism-based; parameters: dose 0.8 mg/kg, route intravenous; settings: in vivo
[6] = Half life in rat at 8 mg/kg, po; assay type: ADME, organism-based; parameters: dose 8 mg/kg, route oral; settings: in vivo
[7] = AUC in rat at 8 mg/kg, po; assay type: ADME, organism-based; parameters: dose 8 mg/kg, route oral; settings: plasma
[8] = Volume of distribution at steady state in rat at 0.7 mg/kg, iv or 8.4 mg/kg, po; assay type: ADME, organism-based; settings: in vivo, read-out: Vdss
[9] = AUC in rat at 8.4 mg/kg, po; assay type: ADME, organism-based; parameters: dose 8.4 mg/kg, route oral; settings: plasma
[10] = Half life in rat at 8.4 mg/kg, po; assay type: ADME, organism-based; parameters: dose 8.4 mg/kg, route oral; settings: in vivo
[11] = Bioavailability in rat at 8.4 mg/kg, po; assay type: ADME, organism-based; settings: in vivo
[12] = Half life in rat at 0.7 mg/kg, iv; assay type: ADME, organism-based; parameters: dose 0.7 mg/kg, route intravenous; settings: in vivo
[13] = Volume of distribution at steady state in rat at 1.0 mg/kg, iv or 11.6 mg/kg, po; assay type: ADME, organism-based; settings: in vivo, read-out: Vdss
[14] = Half life in rat at 11.6 mg/kg, po; assay type: ADME, organism-based; parameters: dose 11.6 mg/kg, route oral; settings: in vivo
[15] = Half life in rat at 1.0 mg/kg, iv; assay type: ADME, organism-based; parameters: dose 1 mg/kg, route intravenous; settings: in vivo
[16] = Bioavailability in rat at 11.6 mg/kg, po; assay type: ADME, organism-based; settings: in vivo
[17] = AUC in rat at 11.6 mg/kg, po; assay type: ADME, organism-based; parameters: dose 11.6 mg/kg, route oral; settings: plasma

SMILES	half-life (in vitro [1]) [h]	half-life (in vitro [2]) [h]	also measured
Cn1c(-c2cccnc2)nc2ccc(-c3ccccc3Cl)c(CN)c21	1.6	0.433	
NCc1c(-c2ccccc2Cl)ccc2ncn(Cc3ccccc3)c12	0.133	0.0667	
Cn1cnc2cc(C(N)=O)c(-c3ccccc3Cl)c(CN)c21	> 3.33	> 3.33	
CCc1nc2ccc(-c3ccccc3Cl)c(CN)c2n1C	> 3.33	0.0333	
Cn1cnc2ccc(-c3ccc(Cl)cc3Cl)c(CN)c21	> 3.33	0.767	bioavailability [3]: 100%; Vd [4]: 4.81 L/kg; half-life [5]: 7 h; half-life [6]: 4.4 h; AUC [7]: 11500 ng·h/mL
CCn1cnc2ccc(-c3ccc(Cl)cc3Cl)c(CN)c21	> 3.33	0.7	
COCc1nc2ccc(-c3ccccc3Cl)c(CN)c2n1C	> 3.33	0.183	
Cn1cnc2cc(Br)c(-c3ccccc3Cl)c(CN)c21	2.93	0.4	
Cn1c(=O)[nH]c2ccc(-c3ccccc3Cl)c(CN)c21	> 3.33	1.27	Vd [8]: 1.14 L/kg; AUC [9]: 9000 ng·h/mL; half-life [10]: 4 h; bioavailability [11]: 49%; half-life [12]: 4.2 h
Cc1nc2ccc(-c3ccccc3Cl)c(CN)c2n1C	> 3.33	0.117	
NCc1c(-c2ccccc2Cl)ccc2ncn(CCO)c12	> 3.33	0.533	
Cn1cnc2ccc(-c3ccccc3)c(CN)c21	1.55	0.767	
NCc1c(-c2ccc(Cl)cc2Cl)ccc2nc[nH]c12	2.15	0.767	
Cn1cnc2cc(C#N)c(-c3ccccc3Cl)c(CN)c21	> 3.33	0.633	Vd [13]: 1.07 L/kg; half-life [14]: 2.9 h; half-life [15]: 3.8 h; bioavailability [16]: 122%; AUC [17]: 22100 ng·h/mL
Cc1ccccc1-c1ccc2ncn(C)c2c1CN	3.05	0.467	
Cn1cnc2ccc(-c3ccccc3CO)c(CN)c21	1.67	0.65	
Cn1nnc2ccc(-c3ccccc3Cl)c(CN)c21	0.483	0.217	
Cn1cnc2ccc(-c3ccccc3Cl)c(CN)c21	> 3.33	0.95	
